Assay results: US9822103B2, “Inhibitors of lysine methyl transferase” (priority 2013, dated 2017)

Molecular target: recombinant EZH2-641F complex (EZH2 Y641F/EED/SUZ12/RbAp48/AEBP2) (Homo sapiens (Human), UniProt Q15910, Y641F)
Assay: EZH2 Histone Methyl Transferase Assay (scintillation proximity assay)
Format: biochemical
Conditions: 350 nM histone peptide substrate, 500 nM 3H-SAM, 3 hours room temperature
Protocol: EZH2 Histone Methyl Transferase Assay
The effectiveness of compounds of the present invention as inhibitors of histone methyl transferases can be readily tested by assays known to those skilled in the art. For example, in vitro histone methyl transferase assays may be conducted with a relevant purified histone methyl transferase and an appropriate synthetic substrate to determine the inhibitory activity of the compounds. Assays for inhibition of EZH2 by the instant compounds were performed in 384-well plates with reaction mixtures containing 350 nM of histone peptide substrate (ATKAAR-K(Me2)-SAPATGGVKKPHRYRPG-GK(Biotin), 500 nM S-[methyl-^3H]adenosyl-L-methionine (55-85 Ci/mmol), 50 mM Tris-HCl (pH 9.0), 50 mM NaCl, 1 mM dithiothreitol, Tween-20 at 0.01% and fatty-acid free bovine serum albumin at 0.01%, and recombinant EZH2-641F complex (EZH2 Y641F/EED/SUZ12/RbAp48/AEBP2) at 5 nM (>98% purity, BPS Bioscience) or 15 nM (50% purity, in-house). Reaction mixtures were incubated at room temperature for 3 hours, and the reactions were terminated by 0.005% poly-L-lysine solution in 20 mM Tris-HCl (pH 7.5) and 150 mM NaCl. Reaction products were captured by binding to strepavidin-conjugated imaging beads. Incorporation of radioactive methyl group into the histone peptide substrate was determined in Leadseeker (GE Healthcare) by means of scintillation proximity assay. Dose response curves were generated to determine the concentration required to inhibit 50% of methyl transferase activity (EC50). Compounds were dissolved at 10 mM in dimethylsulfoxide (DMSO) and evaluated at eleven concentrations. EC50 values were derived by non-linear regression analysis.

recombinant EZH2-641F complex (EZH2 Y641F/EED/SUZ12/RbAp48/AEBP2), sequence (Q15910 whole entry Y641F): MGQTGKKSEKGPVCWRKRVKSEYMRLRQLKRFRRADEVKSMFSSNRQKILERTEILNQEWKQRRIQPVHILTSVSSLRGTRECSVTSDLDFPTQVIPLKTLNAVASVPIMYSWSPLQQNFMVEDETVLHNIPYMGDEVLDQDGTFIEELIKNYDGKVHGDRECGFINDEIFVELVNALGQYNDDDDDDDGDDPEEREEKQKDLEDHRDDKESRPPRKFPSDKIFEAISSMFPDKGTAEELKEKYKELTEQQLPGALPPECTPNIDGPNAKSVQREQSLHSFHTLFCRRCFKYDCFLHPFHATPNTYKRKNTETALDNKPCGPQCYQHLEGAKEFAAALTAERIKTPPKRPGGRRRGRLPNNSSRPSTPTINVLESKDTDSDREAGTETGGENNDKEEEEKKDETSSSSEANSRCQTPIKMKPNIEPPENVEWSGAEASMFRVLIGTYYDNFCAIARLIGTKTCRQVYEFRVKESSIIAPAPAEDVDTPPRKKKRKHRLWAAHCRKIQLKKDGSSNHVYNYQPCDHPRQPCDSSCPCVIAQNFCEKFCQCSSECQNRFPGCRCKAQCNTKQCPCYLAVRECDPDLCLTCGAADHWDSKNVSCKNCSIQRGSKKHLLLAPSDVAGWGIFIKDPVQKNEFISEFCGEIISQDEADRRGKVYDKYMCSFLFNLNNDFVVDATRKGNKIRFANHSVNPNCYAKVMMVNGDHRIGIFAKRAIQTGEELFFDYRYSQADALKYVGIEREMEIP
recombinant EZH2-641F complex (EZH2 Y641F/EED/SUZ12/RbAp48/AEBP2), sequence (O75530 whole entry partner): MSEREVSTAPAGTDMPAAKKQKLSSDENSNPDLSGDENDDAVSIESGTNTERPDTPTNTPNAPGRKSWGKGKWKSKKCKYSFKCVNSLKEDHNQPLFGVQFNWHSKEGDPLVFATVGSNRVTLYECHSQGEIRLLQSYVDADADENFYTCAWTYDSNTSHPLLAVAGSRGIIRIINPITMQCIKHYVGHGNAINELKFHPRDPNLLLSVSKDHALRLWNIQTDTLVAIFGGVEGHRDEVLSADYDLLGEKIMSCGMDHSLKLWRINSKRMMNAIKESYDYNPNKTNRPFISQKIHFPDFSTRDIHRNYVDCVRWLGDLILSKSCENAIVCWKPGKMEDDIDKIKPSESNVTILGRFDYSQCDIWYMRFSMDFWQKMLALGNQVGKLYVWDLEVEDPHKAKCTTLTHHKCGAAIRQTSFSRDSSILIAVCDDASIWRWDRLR
recombinant EZH2-641F complex (EZH2 Y641F/EED/SUZ12/RbAp48/AEBP2), sequence (Q15022 whole entry partner): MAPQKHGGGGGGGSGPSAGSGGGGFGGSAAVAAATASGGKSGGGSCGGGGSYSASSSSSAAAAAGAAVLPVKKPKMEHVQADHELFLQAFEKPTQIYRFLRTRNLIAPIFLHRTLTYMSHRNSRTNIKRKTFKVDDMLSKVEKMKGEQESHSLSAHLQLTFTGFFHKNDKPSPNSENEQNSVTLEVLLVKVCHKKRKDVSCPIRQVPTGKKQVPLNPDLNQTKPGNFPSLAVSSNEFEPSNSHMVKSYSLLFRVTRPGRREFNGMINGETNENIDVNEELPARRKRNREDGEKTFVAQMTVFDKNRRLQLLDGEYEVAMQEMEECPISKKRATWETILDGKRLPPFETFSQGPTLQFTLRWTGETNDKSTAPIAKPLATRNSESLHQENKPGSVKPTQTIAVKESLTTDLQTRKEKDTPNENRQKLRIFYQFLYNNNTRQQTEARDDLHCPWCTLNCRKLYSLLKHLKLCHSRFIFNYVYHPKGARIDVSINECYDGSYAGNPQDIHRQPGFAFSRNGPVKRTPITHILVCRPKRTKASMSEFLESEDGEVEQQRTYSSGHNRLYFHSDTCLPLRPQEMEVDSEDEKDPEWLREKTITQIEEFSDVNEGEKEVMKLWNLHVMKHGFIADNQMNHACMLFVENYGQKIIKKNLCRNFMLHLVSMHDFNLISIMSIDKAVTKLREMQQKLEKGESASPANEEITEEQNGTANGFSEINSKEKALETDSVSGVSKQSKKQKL
recombinant EZH2-641F complex (EZH2 Y641F/EED/SUZ12/RbAp48/AEBP2), sequence (Q09028 whole entry partner): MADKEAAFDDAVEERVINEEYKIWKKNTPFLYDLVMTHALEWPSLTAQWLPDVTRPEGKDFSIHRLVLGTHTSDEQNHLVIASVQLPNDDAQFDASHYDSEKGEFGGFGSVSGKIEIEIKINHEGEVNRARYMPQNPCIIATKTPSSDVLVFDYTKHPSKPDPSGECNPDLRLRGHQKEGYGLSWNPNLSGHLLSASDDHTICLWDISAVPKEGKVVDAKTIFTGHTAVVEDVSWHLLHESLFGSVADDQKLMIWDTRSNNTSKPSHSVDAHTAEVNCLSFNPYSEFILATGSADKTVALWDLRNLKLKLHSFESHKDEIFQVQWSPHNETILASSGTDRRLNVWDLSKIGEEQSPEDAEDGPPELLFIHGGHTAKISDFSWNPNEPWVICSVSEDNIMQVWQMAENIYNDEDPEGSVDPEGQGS
recombinant EZH2-641F complex (EZH2 Y641F/EED/SUZ12/RbAp48/AEBP2), sequence (Q6ZN18 whole entry partner): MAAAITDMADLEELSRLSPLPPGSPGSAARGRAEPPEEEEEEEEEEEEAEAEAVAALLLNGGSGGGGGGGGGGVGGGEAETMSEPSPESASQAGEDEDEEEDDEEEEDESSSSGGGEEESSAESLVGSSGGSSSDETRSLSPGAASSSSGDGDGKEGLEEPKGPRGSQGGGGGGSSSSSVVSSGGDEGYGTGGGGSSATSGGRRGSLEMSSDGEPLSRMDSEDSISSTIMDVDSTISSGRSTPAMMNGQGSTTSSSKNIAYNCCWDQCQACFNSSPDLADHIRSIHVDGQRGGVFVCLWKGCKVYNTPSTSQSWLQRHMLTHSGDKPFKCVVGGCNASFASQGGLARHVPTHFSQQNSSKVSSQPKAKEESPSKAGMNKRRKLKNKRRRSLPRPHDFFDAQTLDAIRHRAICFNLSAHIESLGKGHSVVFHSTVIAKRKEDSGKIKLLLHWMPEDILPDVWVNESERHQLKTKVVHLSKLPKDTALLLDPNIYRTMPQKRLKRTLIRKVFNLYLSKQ

SMILES	IC50
C=CC1(C)Cc2cc(C(=O)NCc3c(C)cc(C)[nH]c3=O)cc(-c3ccc(N4CCNCC4)nc3)c2O1 (stereo not drawn) [Example 59, N-((4,6-Dimethyl-2-oxo-1,2-dihydropyridin-3-yl)methyl)-2-methyl-7-(6-(piperazin-1-yl)pyridin-3-yl)-2-vinyl-2,3-dihydrobenzofuran-5-carboxamide]	< 500 nM
Cc1cc(C)c(CNC(=O)c2cc(Br)c3c(c2)[C@@H](C)[C@H](C)O3)c(=O)[nH]1 (racemic) [Example 40, rac-(2S,3R)-7-bromo-N-((4,6-dimethyl-2-oxo-1,2-dihydropyridin-3-yl)methyl)-2,3-dimethyl-2,3-dihydrobenzofuran-5-carboxamide]	> 1000 nM
Cc1cc(C)c(CNC(=O)c2cc3c(c(-c4ccc(C(=O)N5CCN(C)CC5)cc4)c2)OC(C)(C)C3)c(=O)[nH]1 [Example 16, N-((4,6-Dimethyl-2-oxo-1,2-dihydropyridin-3-yl)methyl)-2,2-dimethyl-7-(4-(4-methylpiperazine-1-carbonyl)phenyl)-2,3-dihydrobenzofuran-5-carboxamide]	> 1000 nM
Cc1cc(C)c(CNC(=O)c2cc3c(c(-c4ccc(CN5CCCCC5)cc4)c2)OC2(CCCC2)C3)c(=O)[nH]1 [Example 74, N-((4,6-Dimethyl-2-oxo-1,2-dihydropyridin-3-yl)methyl)-7-(4-(piperidin-1-ylmethyl)phenyl)-3H-spiro[benzofuran-2,1′-cyclopentane]-5-carboxamide]	> 1000 nM
Cc1cc(C)c(CNC(=O)c2cc3c(c(-c4ccc(N5CCNCC5)nc4)c2)OCC(C)CC3)c(=O)[nH]1 (stereo not drawn) [Example 55, N-((4,6-Dimethyl-2-oxo-1,2-dihydropyridin-3-yl)methyl)-3-methyl-9-(6-(piperazin-1-yl)pyridin-3-yl)-2,3,4,5-tetrahydrobenzo[b]oxepine-7-carboxamide]	> 1000 nM
Cc1cc(C)c(CNC(=O)c2cc(-c3ccc(CN4CCCCC4)cc3)c3c(c2)C2(CCCC2)CO3)c(=O)[nH]1 [Example 78, N-((4,6-Dimethyl-2-oxo-1,2-dihydropyridin-3-yl)methyl)-7-(4-(piperidin-1-ylmethyl)phenyl)-2H-spiro[benzofuran-3,1′-cyclopentane]-5-carboxamide]	> 1000 nM
CCCc1cc(C)[nH]c(=O)c1CNC(=O)c1cc(Br)c2c(c1)CC(C)(C)O2 [Example 24, 7-Bromo-2,2-dimethyl-N-((6-methyl-2-oxo-4-propyl-1,2-dihydropyridin-3-yl)methyl)-2,3-dihydrobenzofuran-5-carboxamide]	> 1000 nM
Cc1cc(C)c(CNC(=O)c2cc(-c3ccc(N4CCNCC4)nc3)c3c(c2)C(C)CO3)c(=O)[nH]1 (stereo not drawn) [Example 29, N-((4,6-Dimethyl-2-oxo-1,2-dihydropyridin-3-yl)methyl)-3-methyl-7-(6-(piperazin-1-yl)pyridin-3-yl)-2,3-dihydrobenzofuran-5-carboxamide]	> 1000 nM
COc1ccc(-c2cc(C(=O)NCc3c(C)cc(C)[nH]c3=O)cc3c2OCC32CCCC2)cn1 [Example 76, N-((4,6-Dimethyl-2-oxo-1,2-dihydropyridin-3-yl)methyl)-7-(6-methoxypyridin-3-yl)-2H-spiro[benzofuran-3,1′-cyclopentane]-5-carboxamide]	> 1000 nM
CCC1(C)Cc2cc(C(=O)NCc3c(C)cc(C)[nH]c3=O)cc(-c3ccc(C)cc3)c2O1 (stereo not drawn) [Example 63, N-((4,6-Dimethyl-2-oxo-1,2-dihydropyridin-3-yl)methyl)-2-ethyl-2-methyl-7-(p-tolyl)-2,3-dihydrobenzofuran-5-carboxamide]	> 1000 nM
COc1ccc(-c2cc(C(=O)NCc3c(C)cc(C)[nH]c3=O)cc3c2OCCC(C)C3)cn1 (stereo not drawn) [Example 46, N-((4,6-Dimethyl-2-oxo-1,2-dihydropyridin-3-yl)methyl)-9-(6-methoxypyridin-3-yl)-4-methyl-2,3,4,5-tetrahydrobenzo[b]oxepine-7-carboxamide]	> 1000 nM
Cc1cc(C)c(CNC(=O)c2ccc3c(c2)CCC(C)(C)O3)c(=O)[nH]1 [Example 41, N-((4,6-Dimethyl-2-oxo-1,2-dihydropyridin-3-yl)methyl)-2,2-dimethylchroman-6-carboxamide]	> 1000 nM
Cc1cc(C)c(CNC(=O)c2cc(C#N)c3c(c2)CC(C)(C)O3)c(=O)[nH]1 [Example 22, 7-Cyano-N-((4,6-dimethyl-2-oxo-1,2-dihydropyridin-3-yl)methyl)-2,2-dimethyl-2,3-dihydrobenzofuran-5-carboxamide]	> 1000 nM
COc1ccc(-c2cc(C(=O)NCc3c(C)cc(C)[nH]c3=O)cc3c2OC(C)C3)cn1 (stereo not drawn) [Example 32, N-((4,6-Dimethyl-2-oxo-1,2-dihydropyridin-3-yl)methyl)-7-(6-methoxypyridin-3-yl)-2-methyl-2,3-dihydrobenzofuran-5-carboxamide]	> 1000 nM
Cc1cc(C)c(CNC(=O)c2cc(/C=C/c3ccccc3)c3c(c2)CC(C)(C)O3)c(=O)[nH]1 [Example 15, (E)-N-((4,6-Dimethyl-2-oxo-1,2-dihydropyridin-3-yl)methyl)-2,2-dimethyl-7-styryl-2,3-dihydrobenzofuran-5-carboxamide]	> 1000 nM
CCC1(C)Cc2cc(C(=O)NCc3c(C)cc(C)[nH]c3=O)cc(-c3ccc(OC)nc3)c2O1 (stereo not drawn) [Example 61, N-((4,6-Dimethyl-2-oxo-1,2-dihydropyridin-3-yl)methyl)-2-ethyl-7-(6-methoxypyridin-3-yl)-2-methyl-2,3-dihydrobenzofuran-5-carboxamide]	> 1000 nM
Cc1cc(C)c(CNC(=O)c2cc3c(c(-c4ccc(N5CCNCC5)nc4)c2)OC(C)C3)c(=O)[nH]1 (stereo not drawn) [Example 34, N-((4,6-Dimethyl-2-oxo-1,2-dihydropyridin-3-yl)methyl)-2-methyl-7-(6-(piperazin-1-yl)pyridin-3-yl)-2,3-dihydrobenzofuran-5-carboxamide]	> 1000 nM

The next lines start with the values.

IC50	SMILES
> 1000 nM	Cc1cc(C)c(CNC(=O)c2cc3c(c(-c4ccc(N5CCNCC5)nc4)c2)OC(C)CCC3)c(=O)[nH]1 (stereo not drawn) [Example 51, N-((4,6-Dimethyl-2-oxo-1,2-dihydropyridin-3-yl)methyl)-2-methyl-9-(6-(piperazin-1-yl)pyridin-3-yl)-2,3,4,5-tetrahydrobenzo[b]oxepine-7-carboxamide]
> 1000 nM	Cc1cc(C)c(CNC(=O)c2cc(Br)c3c(c2)CCCC(C)O3)c(=O)[nH]1 (stereo not drawn) [Example 49, 9-Bromo-N-((4,6-dimethyl-2-oxo-1,2-dihydropyridin-3-yl)methyl)-2-methyl-2,3,4,5-tetrahydrobenzo[b]oxepine-7-carboxamide]
< 500 nM	CCC1(C)Cc2cc(C(=O)NCc3c(C)cc(C)[nH]c3=O)cc(-c3ccc(N4CCNCC4)nc3)c2O1 (stereo not drawn) [Example 62, N-((4,6-Dimethyl-2-oxo-1,2-dihydropyridin-3-yl)methyl)-2-ethyl-2-methyl-7-(6-(piperazin-1-yl)pyridin-3-yl)-2,3-dihydrobenzofuran-5-carboxamide]
> 1000 nM	Cc1cc(C)c(CNC(=O)c2cc3c(c(-c4ccc(N5CCNCC5)nc4)c2)OC(C(C)C)C3)c(=O)[nH]1 (stereo not drawn) [Example 80, N-((4,6-Dimethyl-2-oxo-1,2-dihydropyridin-3-yl)methyl)-2-isopropyl-7-(6-(piperazin-1-yl)pyridin-3-yl)-2,3-dihydrobenzofuran-5-carboxamide]
> 1000 nM	CC1=CCOc2c(Br)cc(C(=O)NCc3c(C)cc(C)[nH]c3=O)cc2C1 [Example 44, 9-Bromo-N-((4,6-dimethyl-2-oxo-1,2-dihydropyridin-3-yl)methyl)-4-methyl-2,5-dihydrobenzo[b]oxepine-7-carboxamide]
> 1000 nM	Cc1cc(C)c(CNC(=O)c2cc(Br)c3c(c2)CCC(C)(C)O3)c(=O)[nH]1 [Example 42, 8-Bromo-N-((4,6-dimethyl-2-oxo-1,2-dihydropyridin-3-yl)methyl)-2,2-dimethylchroman-6-carboxamide]
> 1000 nM	Cc1cc(C)c(CNC(=O)c2cc(Br)c3c(c2)CC(C)O3)c(=O)[nH]1 (stereo not drawn) [Example 31, 7-Bromo-N-((4,6-dimethyl-2-oxo-1,2-dihydropyridin-3-yl)methyl)-2-methyl-2,3-dihydrobenzofuran-5-carboxamide]
> 1000 nM	COc1ccc(-c2cc(C(=O)NCc3c(C)cc(C)[nH]c3=O)cc3c2OC(C)(C)CC3)cn1 [Example 43, N-((4,6-Dimethyl-2-oxo-1,2-dihydropyridin-3-yl)methyl)-8-(6-methoxypyridin-3-yl)-2,2-dimethylchroman-6-carboxamide]
> 1000 nM	C=CC1(C)Cc2cc(C(=O)NCc3c(C)cc(C)[nH]c3=O)cc(-c3ccc(CN4CCOCC4)cc3)c2O1 (stereo not drawn) [Example 58, N-((4,6-Dimethyl-2-oxo-1,2-dihydropyridin-3-yl)methyl)-2-methyl-7-(4-(morpholinomethyl)phenyl)-2-vinyl-2,3-dihydrobenzofuran-5-carboxamide]
< 500 nM	Cc1cc(C)c(CNC(=O)c2cc3c(c(Br)c2C)O[C@@]2(C)CCC[C@@H]32)c(=O)[nH]1 (racemic) [Example 69, rac-(3aS,8bS)-5-Bromo-N-((4,6-dimethyl-2-oxo-1,2-dihydropyridin-3-yl)methyl)-3a,6-dimethyl-2,3,3a,8b-tetrahydro-1H-cyclopenta[b]benzofuran-7-carboxamide]
